biological target: KRAS (aa 1-169) G12C, C51S, C80L, C118S (Homo sapiens (Human), UniProt P01116, C118S/C51S/C80L/G12C); assay: KRAS G12C SOS1-mediated nucleotide exchange / cRaf RBD binding FRET assay (Biochemical Functional Assay); details: GDP-loaded KRAS G12C pre-incubated with compound at 24° C. for 3 hrs; SOS1, GTPγS, GST-cRaf RBD; inhibition of nucleotide exchange
Protocol: The KRAS ([…]) G12C, C51S, C80L, C118S with a His-tag was expressed, purified and loaded with GDP in house. All protein and substrate solutions were prepared in assay buffer containing 25 mM HEPES pH7.5, 10 mM MgCl2, and 0.01% Triton X-100. Purified GDP-loaded KRAS (aa 1-169) G12C, C51S, C80L, C118S protein was pre-incubated with a serially diluted compound at 24° C. for 3 hrs. Purified SOS1 (aa 564-1049) protein, GTPYS (Sigma) and GST-cRaf RBD (aa 1-149) were then added to each well and incubated at 24° C. for additional 3 hrs. […] Following the incubation, Mab Anti-6HIS-Tb cryptate (Cisbio) and Mab Anti GST-XL665 (Cisbio) were added and further incubated at 24° C. for 3 hrs. The binding interaction between active GTPγS KRAS G12C and GST-cRaf RBD brings the Tb and XL665 into close proximity enabling an increased FRET signal (Ex337 nm, Em665 nm/620 nm). The inhibition percentage of nucleotide exchange reaction in presence of increasing concentrations of compounds was calculated based on the ratio of fluorescence at 665 nm to that at 620 nm detected on a BMG PHERAstar FSX instrument. The IC50 value of each compound was calculated from fitting the data to the four-parameter logistic model by Dotmatics.

Sequence of KRAS (aa 1-169) G12C, C51S, C80L, C118S (P01116 other isoform, or with tags, fused parts or gaps G12C/C51S/C80L/C118S): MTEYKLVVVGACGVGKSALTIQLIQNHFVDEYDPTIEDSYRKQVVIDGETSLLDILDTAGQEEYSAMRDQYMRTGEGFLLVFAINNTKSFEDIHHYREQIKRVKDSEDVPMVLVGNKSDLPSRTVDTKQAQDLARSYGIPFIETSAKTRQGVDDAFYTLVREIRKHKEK

Compared with `C=CC(=O)N1CCN(c2nc(OC[C@@H]3CCCN3C)nc3c(Cc4cc(O)cc5ccccc45)cn(CC)c23)C[C@@H]1CC#N` [Compound B2, 2-((S)-1-acryloyl-4-(5-ethyl-7-((3-hydroxynaphthalen-1-yl)methyl)-2-(((S)-1-methylpyrrolidin-2-yl)methoxy)-5H-pyrrolo[3,2-d]pyrimidin-4-yl)piperazin-2-yl)acetonitrile], `C=CC(=O)N1CCN(c2nc(OC[C@@H]3CCCN3C)nc3c(Cc4cc(O)cc5ccccc45)cn(C)c23)C[C@@H]1CC#N` [Compound B1, 2-((S)-1-acryloyl-4-(7-((3-hydroxynaphthalen-1-yl)methyl)-5-methyl-2-(((S)-1-methylpyrrolidin-2-yl)methoxy)-5H-pyrrolo[3,2-d]pyrimidin-4-yl)piperazin-2-yl)acetonitrile] is 2.1-fold lower in IC50: 0.013 µM for the first, 0.0062 µM for the second.

Compared with `C=CC(=O)N1CCN(c2nc(OC[C@@H]3CCCN3C)nn3c(Cc4c(F)cccc4Cl)cnc23)C[C@@H]1CC#N` [Compound A11, 2-((S)-1-acryloyl-4-(7-(2-chloro-6-fluorobenzyl)-2-(((S)-1-methylpyrrolidin-2-yl)methoxy)imidazo[2,1-f][1,2,4]triazin-4-yl)piperazin-2-yl)acetonitrile], `C=CC(=O)N1CCN(c2nc(OC[C@@H]3CCCN3C)nn3c(Cc4cccc5[nH]ncc45)cnc23)C[C@@H]1CC#N` [Compound A15, 2-((S)-4-(7-((1H-indazol-4-yl)methyl)-2-(((S)-1-methylpyrrolidin-2-yl)methoxy)imidazo[2,1-f][1,2,4]triazin-4-yl)-1-acryloylpiperazin-2-yl)acetonitrile] is 5.5-fold higher in IC50: 0.215 µM for the first, 1.18 µM for the second. The first is the more potent here.

`C=CC(=O)N1CCN(c2nc(OC[C@@H]3CCCN3C)nn3c(Cc4cccc5ccccc45)cnc23)[C@@H](C)C1` [Compound A17, 1-((S)-3-methyl-4-(2-(((S)-1-methylpyrrolidin-2-yl)methoxy)-7-(naphthalen-1-ylmethyl)imidazo[2,1-f][1,2,4]triazin-4-yl)piperazin-1-yl)prop-2-en-1-one] and `C=CC(=O)N1CCN(c2nc(OC[C@@H]3CCCN3C)nn3c(Cc4cccc5ccccc45)cnc23)CC1` [Compound A1, (S)-1-(4-(2-((1-methylpyrrolidin-2-yl)methoxy)-7-(naphthalen-1-ylmethyl)imidazo[2,1-f][1,2,4]triazin-4-yl)piperazin-1-yl)prop-2-en-1-one] are within 1.5-fold of each other in IC50: 2.93 µM for the first, 3.28 µM for the second.

First: C=CC(=O)N1CCN(c2nc(OC[C@@H]3CCCN3C)nn3c(Cc4ccc5ccccc5c4)cnc23)C[C@@H]1CC#N [Compound A8, 2-((S)-1-acryloyl-4-(2-(((S)-1-methylpyrrolidin-2-yl)methoxy)-7-(naphthalen-2-ylmethyl)imidazo[2,1-f][1,2,4]triazin-4-yl)piperazin-2-yl)acetonitrile]
Second: C=CC(=O)N1CCN(c2nc(OC[C@@H]3CCCN3C)nn3c(Cc4cc(O)cc5ccccc45)cnc23)CC1 [Compound A2, (S)-1-(4-(7-((3-hydroxynaphthalen-1-yl)methyl)-2-((1-methylpyrrolidin-2-yl)methoxy)imidazo[2,1-f][1,2,4]triazin-4-yl)piperazin-1-yl)prop-2-en-1-one]
The IC50 of the first is 18-fold higher: 7.7 µM for the first, 0.427 µM for the second. The second is the more potent here.

First: C=CC(=O)N1CCN(c2nc(OC[C@@H]3CCCN3C)nc3c(Cc4cc(O)cc5ccccc45)cn(C)c23)CC1 [Compound B4, (S)-1-(4-(7-((3-hydroxynaphthalen-1-yl)methyl)-5-methyl-2-((1-methylpyrrolidin-2-yl)methoxy)-5H-pyrrolo[3,2-d]pyrimidin-4-yl)piperazin-1-yl)prop-2-en-1-one]
Second: C=C(F)C(=O)N1CCN(c2nc(OC[C@@H]3CCCN3C)nc3c(Cc4c(Cl)c(F)cc5[nH]ncc45)c[nH]c23)C[C@@H]1CC#N [Compound B6, 2-((S)-4-(7-((5-chloro-6-fluoro-1H-indazol-4-yl)methyl)-2-(((S)-1-methylpyrrolidin-2-yl)methoxy)-5H-pyrrolo[3,2-d]pyrimidin-4-yl)-1-(2-fluoroacryloyl)piperazin-2-yl)acetonitrile]
The IC50 of the first is 1.9-fold lower: 0.329 µM for the first, 0.639 µM for the second. The first is the more potent here.

same assay, conditions: same assay; the cell prints uM although the column head says nmol

`C=CC(=O)N1CCN(c2nc(OC[C@@H]3CCCN3C)nn3c(-c4cc(OC)cc5ccccc45)cnc23)C[C@@H]1CC#N` [Compound A3, 2-((S)-1-acryloyl-4-(7-(3-methoxynaphthalen-1-yl)-2-(((S)-1-methylpyrrolidin-2-yl)methoxy)imidazo[2,1-f][1,2,4]triazin-4-yl)piperazin-2-yl)acetonitrile] was tested, and the IC50 was over 10 µM.
